According to ChEMBL document CHEMBL1201862, “PubChem BioAssay data set” (2004):
Active and inactive are the calls of the source.

Experiments:
[1] = target: T1, NADPH oxidase 1 (Homo sapiens, UniProt Q9Y5S8); assay: Late-stage luminescence-based cell-based dose response assay to identify inhibitors of NADPH oxidase 1 (NOX1): Synthesized analogs.; assay type: functional
T1 sequence (Q9Y5S8 whole entry): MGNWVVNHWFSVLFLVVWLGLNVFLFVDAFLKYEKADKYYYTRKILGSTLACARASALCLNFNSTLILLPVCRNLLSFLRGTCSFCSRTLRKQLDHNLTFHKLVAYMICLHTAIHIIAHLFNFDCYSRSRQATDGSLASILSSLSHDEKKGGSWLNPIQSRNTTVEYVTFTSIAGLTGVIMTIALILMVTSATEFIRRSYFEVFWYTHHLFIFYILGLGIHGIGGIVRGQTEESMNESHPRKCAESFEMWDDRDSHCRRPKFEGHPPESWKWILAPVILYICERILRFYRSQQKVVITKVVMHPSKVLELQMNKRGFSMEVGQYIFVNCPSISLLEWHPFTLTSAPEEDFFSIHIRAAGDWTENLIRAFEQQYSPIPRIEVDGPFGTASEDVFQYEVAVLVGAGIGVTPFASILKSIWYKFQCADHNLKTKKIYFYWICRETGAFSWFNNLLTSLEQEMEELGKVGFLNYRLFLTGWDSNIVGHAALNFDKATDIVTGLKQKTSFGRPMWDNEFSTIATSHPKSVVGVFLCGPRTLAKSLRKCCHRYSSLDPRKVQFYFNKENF

[2] = target: T1, NADPH oxidase 1; assay: Luminescence-based cell-based dose response assay to identify inhibitors of NADPH oxidase 1 (NOX1).; assay type: functional
[3] = target: T1, NADPH oxidase 1; assay: Late-stage luminescence-based cell-based dose response assay to identify inhibitors of NADPH oxidase 1 (NOX1): Synthesized analogs 2.; assay type: functional
[4] = target: Procathepsin L (Homo sapiens, UniProt P07711); assay: cathepsin L inhibitors, dose response, counter-screen for M1/M17 aminopeptidase inhibitor project, biochemical, QFRET, 1536-well (AID 2214)
Chain of Procathepsin L (P07711 whole entry): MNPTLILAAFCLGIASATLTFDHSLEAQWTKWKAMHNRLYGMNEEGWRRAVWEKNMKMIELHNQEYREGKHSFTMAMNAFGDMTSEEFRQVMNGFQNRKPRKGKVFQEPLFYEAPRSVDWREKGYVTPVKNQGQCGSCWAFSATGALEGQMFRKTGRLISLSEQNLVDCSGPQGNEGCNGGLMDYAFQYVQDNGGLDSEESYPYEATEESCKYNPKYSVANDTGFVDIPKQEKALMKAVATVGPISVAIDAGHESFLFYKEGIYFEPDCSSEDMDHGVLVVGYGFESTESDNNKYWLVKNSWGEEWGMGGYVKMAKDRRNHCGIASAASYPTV

[5] = target: Aspartyl aminopeptidase (Plasmodium falciparum 3D7, UniProt Q8I2J3); assay: Counterscreen for inhibitors of M1 and M17 aminopeptidases: QFRET-based biochemical high throughput dose response assay for inhibitors of the Plasmodium falciparum M18 Aspartyl Aminopeptidase (PFM18AAP). [Related PubChem assays: 1619 (Screening assay (M17LAP inhibitors).), 1445 (Screening assay (M1AAP inhibitors).)]
Chain of Aspartyl aminopeptidase (Q8I2J3 whole entry): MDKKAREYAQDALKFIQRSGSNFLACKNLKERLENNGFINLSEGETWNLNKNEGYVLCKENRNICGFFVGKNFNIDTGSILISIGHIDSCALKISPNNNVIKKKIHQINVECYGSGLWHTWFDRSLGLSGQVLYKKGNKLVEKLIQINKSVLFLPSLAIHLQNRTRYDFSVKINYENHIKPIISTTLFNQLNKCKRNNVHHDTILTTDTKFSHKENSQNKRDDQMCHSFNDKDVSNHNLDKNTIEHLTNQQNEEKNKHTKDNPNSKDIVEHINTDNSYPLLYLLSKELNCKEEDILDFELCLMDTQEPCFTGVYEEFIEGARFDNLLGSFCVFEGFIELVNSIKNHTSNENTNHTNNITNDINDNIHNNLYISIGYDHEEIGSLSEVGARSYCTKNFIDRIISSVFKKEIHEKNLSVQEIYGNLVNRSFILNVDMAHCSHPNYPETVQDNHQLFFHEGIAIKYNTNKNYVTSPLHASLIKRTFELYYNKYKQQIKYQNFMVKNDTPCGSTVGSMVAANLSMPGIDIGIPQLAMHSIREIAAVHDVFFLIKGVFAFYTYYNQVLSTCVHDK

[6] = target: T2, Leucine aminopeptidase (Plasmodium falciparum 3D7, UniProt Q8IL11); assay: P. falciparum M17LAP inhibitors, primary screen, biochemical, fluorogenic H-Leu-NHMec substrate, 1536-well (AID 1619); assay type: functional
T2 sequence (Q8IL11 whole entry): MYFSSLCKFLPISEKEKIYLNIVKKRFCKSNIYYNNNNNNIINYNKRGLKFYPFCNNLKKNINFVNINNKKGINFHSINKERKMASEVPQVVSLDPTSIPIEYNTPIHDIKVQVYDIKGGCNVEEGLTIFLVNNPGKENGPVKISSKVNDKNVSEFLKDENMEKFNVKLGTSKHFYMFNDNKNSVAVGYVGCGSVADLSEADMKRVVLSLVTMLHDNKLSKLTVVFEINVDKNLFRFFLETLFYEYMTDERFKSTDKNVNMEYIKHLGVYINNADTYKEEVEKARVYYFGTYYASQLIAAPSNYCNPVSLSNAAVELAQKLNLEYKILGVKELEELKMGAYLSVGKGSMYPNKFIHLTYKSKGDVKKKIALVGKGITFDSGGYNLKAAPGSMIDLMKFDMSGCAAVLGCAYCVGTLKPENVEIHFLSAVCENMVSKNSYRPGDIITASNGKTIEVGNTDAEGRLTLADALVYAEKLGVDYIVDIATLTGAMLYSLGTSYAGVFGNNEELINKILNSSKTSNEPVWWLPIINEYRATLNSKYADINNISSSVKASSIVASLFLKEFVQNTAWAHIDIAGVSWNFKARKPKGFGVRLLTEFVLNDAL

[7] = target: T3, Bcl-2-related protein A1 (Mus musculus, UniProt Q07440); assay: Bfl-1 inhibitors blocking BH3 peptide binding, confirmation, biochemical, TR-FRET, mouse Bfl-1 (AID 621);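 further: TR-FRET binding of GST-Bfl-1 to FITC-labelled Bid peptide via terbium antibody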
T3 sequence (Q07440 whole entry): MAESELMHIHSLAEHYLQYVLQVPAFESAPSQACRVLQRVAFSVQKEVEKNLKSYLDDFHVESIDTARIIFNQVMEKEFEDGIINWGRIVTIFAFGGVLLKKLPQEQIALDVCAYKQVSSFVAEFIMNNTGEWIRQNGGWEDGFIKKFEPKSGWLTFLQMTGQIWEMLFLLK

[8] = target: T3, Bcl-2-related protein A1; assay: Bfl-1 binding inhibitors, SAR follow-up, biochemical, fluorescence polarization (AID 1070)
[9] = Luminescence Cell-Based Dose Response to Identify Activators of 5'UTR Stem-Loop Driven Prion Protein mRNA Translation in H4-C Neuroglioblastoma Cells. [Related pubchem assays: 1829 (Project Summary), 1814 (Primary HTS)]; assay type: functional
[10] = Luminescence Cell-Based Dose Confirmation to Identify Activators of 5'UTR Stem-Loop Driven Alpha-Synuclein mRNA Translation in H4 Neuroglioblastoma Cells. [Related pubchem assays: 1829 (Project Summary), 1814 (Primary HTS)]; assay type: functional
[11] = Luminescence Cell-Based Dose Response HTS to Identify Activators of Luciferase Translation or Activity in H4 […] Cells. [Related pubchem assays: 1829 (Project Summary), 1814 (Primary HTS)]; assay type: functional
[12] = tested on: H4; assay: Luminescence Cell-Based Dose Response HTS to Identify Activators of 5'UTR Stem-Loop Driven Prion Protein mRNA Translation in H4 Neuroglioblastoma Cells. [Related pubchem assays: 1829 (Project Summary), 1814 (Primary HTS)]; assay type: functional; conditions: Homo sapiens
[13] = Luminescence Cell-Based Dose Response to Identify Activators of Luciferase Translation or Activity in H4-C Neuroglioblastoma Cells. [Related pubchem assays: 1829 (Project Summary), 1814 (Primary HTS)]; assay type: functional
[14] = C. albicans growth with fluconazole, confirmation, fluorescence, retest (AID 2467); assay type: functional, cell-based
[15] = tested on: Vero; assay: host cell cytotoxicity of antiviral hits, dose response, cytotoxicity control for West Nile virus antiviral project, secondary assay (AID 1650); assay type: functional; conditions: Chlorocebus sabaeus
[16] = NIH-3T3 fibroblast cytotoxicity, dose response, cytotoxicity control, cell-based, fluorescence, Alamar Blue, secondary assay (AID 2327); assay type: functional;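 further: NIH-3T3 mouse fibroblasts cultured with fluconazole at 8 µg/mL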
[17] = target: Bcl-2-like protein 1 (Homo sapiens, UniProt Q07817); assay: BCL-XL inhibitors, dose response, selectivity assay for MCL1 inhibitor project, biochemical, fluorescence polarization, 1536-well (AID 2218)
Chain of Bcl-2-like protein 1 (Q07817 whole entry): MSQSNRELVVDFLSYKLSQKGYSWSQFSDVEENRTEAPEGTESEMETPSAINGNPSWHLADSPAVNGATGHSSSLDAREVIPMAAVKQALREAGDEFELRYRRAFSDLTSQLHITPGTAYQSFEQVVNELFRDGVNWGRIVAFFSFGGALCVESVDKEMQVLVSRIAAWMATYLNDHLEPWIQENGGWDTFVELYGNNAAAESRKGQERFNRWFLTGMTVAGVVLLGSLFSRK

[18] = target: Induced myeloid leukemia cell differentiation protein Mcl-1 (Homo sapiens, UniProt Q07820); assay: MCL1-BIM BH3 interaction inhibitors, dose response, biochemical, fluorescence polarization, BIM-BH3 peptide, 1536-well (AID 2217)
Chain of Induced myeloid leukemia cell differentiation protein Mcl-1 (Q07820 whole entry): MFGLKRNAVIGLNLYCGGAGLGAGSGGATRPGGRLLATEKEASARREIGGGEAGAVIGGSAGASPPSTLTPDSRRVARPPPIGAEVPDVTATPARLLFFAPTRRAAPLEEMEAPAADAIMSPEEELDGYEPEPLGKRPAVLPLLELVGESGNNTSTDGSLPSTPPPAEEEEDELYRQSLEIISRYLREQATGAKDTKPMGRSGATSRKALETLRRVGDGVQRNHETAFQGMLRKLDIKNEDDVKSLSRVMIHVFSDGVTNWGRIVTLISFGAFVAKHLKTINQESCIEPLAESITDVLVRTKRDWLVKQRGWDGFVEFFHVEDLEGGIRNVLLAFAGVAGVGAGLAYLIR

## COc1ccc2c(c1)S(=O)(=O)c1ccccc1N2
[1]
  IC50: > 50 µM (not active)
[2]
  IC50: > 20 µM (not active)

## O=C(c1ccccc1)c1ccccc1N1c2ccccc2Sc2ccccc21
[3]
  IC50: > 50 µM (not active)

## O=C(O)C1CC=CCC1C(=O)Nc1cccc(Cl)c1 (stereo not drawn)
[4]
  IC50: > 59.6 µM (not active)
[5]
  IC50: > 73.5 µM (not active)
[6]
  IC50: 6.23 µM (active)

## C[C@H]1CN(C2=C(Cl)C(=O)N(c3ccc(Cl)c(Cl)c3)C2=O)CCN1
[7]
  IC50: 1.25 µM (active)
[8]
  IC50: 1.32 µM (active)

## S=C(c1ccc(-c2ccc(Br)cc2)o1)N1CCOCC1
[9]
  EC50: 0.507 µM (active)
[10]
  EC50: 0.251 µM (active)
[11]
  EC50: < 0.1 µM (active)
[12]
  EC50: 18.6 µM (inconclusive)
[13]
  EC50: 0.378 µM (active)

## Nc1nsc2ccccc12
[14]
  EC50: 3.19 µM (active)
[15]
  CC50: 41.7 µM (active)
[16]
  EC50: 24.5 µM (inconclusive)

## Cc1ccc(-c2csc3ncn(CC#N)c(=O)c23)cc1C
[17]
  IC50: > 109 µM (not active)
[18]
  IC50: > 109 µM (not active)
